In patent publication US6875773B1, “Combination therapy for treatment of FIV infection” (priority 1998, dated 2005):

Key:
FIV = conditions: background statement, no reference given; cited from earlier work
FIVPet = assay: Anti-FIV activity (RT activity in supernatant) in feline T-cell line chronically infected with FIVPet (FL-4 cells); type: cell-based, Feline immunodeficiency virus; conditions: nontoxic doses
Procedure: (§1) The antiviral activity of the drugs at noncytotoxic doses were evaluated in feline T-cell lines chronically infected with either FIVPet (subtype A strain) (panel A), or FIVBang (subtype B strain) (panel B). The RT data are presented as % control, whereby % control represents RT mean of triplicate treated cultures divided by RT mean of triplicate untreated cultures and multiplied by 100. The RT data on harvest days at 6, 9, and 12 are shown.
(§2) In the first set of in vitro studies, feline T-cell lines chronically infected with FIVPet, (FL-4 cells) or FIVBang, (FIVBang/FeT-J cells) at 2×10^5 cells/ml were treated for 3 weeks with a single drug or various combinations of AZT, 3TC, an FIV protease inhibitor (FIV-PI; Hoescht-Bayer HBY-793), and HIV protease inhibitors (HIV-PI) (FIGS. 1A and 1B). Saquinavir (SQV) and Indinavir (IDV) were used as the HIV-PIs. Culture supernatants were harvested and the cells were resuspended in fresh culture media containing appropriate drug(s) at […]. Viral replication was determined by measuring the levels of reverse transcriptase (RT) activity in the culture supernatants (Rey et al., 1984). Drug toxicity in these cultures were monitored by viability and absolute cell count analyses using trypan blue exclusion method (Mishell et al., 1980).
(§3) Single and combination drug doses which were determined to be nontoxic to the test cells were used in these studies.

FIVBang [1] = assay: Anti-FIV activity (RT activity in supernatant) in feline T-cell line chronically infected with FIVBang (FIVBang/FeT-J cells); type: cell-based, Feline immunodeficiency virus; conditions: nontoxic doses
Procedure: as §1, §2, §3

FIVBang [2] = assay: Anti-FIV activity (RT activity) in primary cat PBMC infected with FIVBang; type: cell-based, Feline immunodeficiency virus; conditions: for FIV replication in PBMC (RT activity), result in words: FIVBang 100 TCID50, drug added immediately before inoculation, nontoxic doses; for effect of adding the protease inhibitor to the AZT/3TC combination on antiviral activity: FIVBang
Procedure: Nucleoside analogue and PI doses were 0.1 μM in Experiment 1 (panel A) and 0.05 μM and 0.01 μM, respectively, in Experiment 2 (panel B).
(§4) As a means to simulate in vivo conditions, primary peripheral blood mononuclear cells (PBMC) from specific pathogen free (SPF) cats were next used as the indicator cells. Primary PBMC isolated by ficoll hypaque method were stimulated with concanavalin A for 3 days and cultured for an additional 2 weeks before their use in drug studies (Staszewski, 1995). Antiretroviral drug(s) were added to the PBMC cultures (1×10^6 cells/ml) immediately before FIVBang, (subtype B) or FIVUK-8(subtype A) inoculation of 100 50% tissue culture infectious dose (TCID50).

FIVUK-8 = assay: Anti-FIV activity (RT activity) in primary cat PBMC infected with FIVUK-8; type: cell-based, Feline immunodeficiency virus; conditions: for FIV replication in PBMC (RT activity), result in words: FIVUK-8 100 TCID50, drug added immediately before inoculation, nontoxic doses; for effect of adding the protease inhibitor to the AZT/3TC combination on antiviral activity: FIVUK-8
Procedure: Nucleoside analogue and P1 doses were 0.1 μM and 0.01-0.5 μM, respectively, in Experiment 1 (panel A) and 0.05 μM and 0.01-0.5 μM respectively, in Experiment 2 (panel B).
as §4

FIV protease = FIV protease (Feline immunodeficiency virus, UniProt P16088); conditions: Dunn et al., 1994; Wlodawer et al., 1995; cited from earlier work
HIV protease = HIV protease (Human immunodeficiency virus type 1 group M subtype B, UniProt P04585); conditions: Dunn et al., 1994; Wlodawer et al., 1995; cited from earlier work

## CC(C)c1nc(CN(C)C(=O)N[C@H](C(=O)N[C@@H](Cc2ccccc2)C[C@H](O)[C@H](Cc2ccccc2)NC(=O)OCc2cncs2)C(C)C)cs1 [Ritonavir]
FIV
  FIV replication in PBMC in vitro: do not inhibit FIV replication

## CC(C)[C@H](NC(=O)[C@H](Cc1cccc2ccccc12)CS(=O)(=O)C(C)(C)C)C(=O)N[C@@H](Cc1ccccc1)[C@H](O)[C@H](O)[C@H](Cc1ccccc1)NC(=O)[C@@H](NC(=O)[C@H](Cc1cccc2ccccc12)CS(=O)(=O)C(C)(C)C)C(C)C [FIV-PI]
FIVPet; treated for 3 weeks
  inhibition of RT activity / FIV replication: 70-80%
FIVBang [1]; treated for 3 weeks
  inhibition of RT activity / FIV replication: 70-80%
FIVBang [2]
  FIV replication in PBMC (RT activity), result in words: inhibited FIV replication
FIVUK-8
  FIV replication in PBMC (RT activity), result in words: inhibited FIV replication
FIV protease
  binding to FIV protease: efficiently binds
HIV protease
  binding to HIV protease: efficiently binds

## Cc1c(O)cccc1C(=O)N[C@@H](CSc1ccccc1)[C@H](O)CN1C[C@H]2CCCC[C@H]2C[C@H]1C(=O)NC(C)(C)C [Nelfinavir]
FIV
  FIV replication in PBMC in vitro: do not inhibit FIV replication

## CC(C)(C)NC(=O)[C@@H]1C[C@@H]2CCCC[C@@H]2CN1C[C@@H](O)[C@H](Cc1ccccc1)NC(=O)[C@H](CC(N)=O)NC(=O)c1ccc2ccccc2n1 [SQV, Saquinavir]
FIVPet
  anti-FIV activity (RT activity), result in words: neither SQV nor IDV alone had significant anti-FIV effect
FIVBang [1]
  anti-FIV activity (RT activity), result in words: neither SQV nor IDV alone had significant anti-FIV effect
FIVBang [2]
  effect of adding the protease inhibitor to the AZT/3TC combination on antiviral activity: did not enhance the antiviral activity of the AZT/3TC combination
  FIV replication in PBMC (RT activity), result in words: lack of anti-FIV activity
FIVUK-8
  effect of adding the protease inhibitor to the AZT/3TC combination on antiviral activity: did not enhance the antiviral activity of the AZT/3TC combination
  FIV replication in PBMC (RT activity), result in words: lack of anti-FIV activity
FIV
  FIV replication in PBMC in vitro: do not inhibit FIV replication

## CC(C)(C)NC(=O)[C@@H]1CN(Cc2cccnc2)CCN1C[C@@H](O)C[C@@H](Cc1ccccc1)C(=O)N[C@H]1c2ccccc2C[C@H]1O [IDV, Indinavir]
FIVPet
  anti-FIV activity (RT activity), result in words: neither SQV nor IDV alone had significant anti-FIV effect
FIVBang [1]
  anti-FIV activity (RT activity), result in words: neither SQV nor IDV alone had significant anti-FIV effect
FIVBang [2]
  effect of adding the protease inhibitor to the AZT/3TC combination on antiviral activity: did not enhance the antiviral activity of the AZT/3TC combination
  FIV replication in PBMC (RT activity), result in words: lack of anti-FIV activity
FIVUK-8
  effect of adding the protease inhibitor to the AZT/3TC combination on antiviral activity: did not enhance the antiviral activity of the AZT/3TC combination
  FIV replication in PBMC (RT activity), result in words: lack of anti-FIV activity
FIV
  FIV replication in PBMC in vitro: do not inhibit FIV replication
